The supplement of paper PMC10331698
± gives the standard deviation of the averaged measurements.

Tests used:
Test in all cases: level (log10 ratio to DMSO vehicle control); higher = higher biomarker level / cell amount than vehicle control
Conditions in all cases: in DMSO
1-(Perfluorohexyl)octane = compound: CCCCCCCCC(F)(F)C(F)(F)C(F)(F)C(F)(F)C(F)(F)C(F)(F)F [1-(Perfluorohexyl)octane]
Experimental: (§1)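 BioMAP Diversity Plus panel of 12 human primary cell co-culture systems (3C, 4H, LPS, SAg, BT, BF4T, BE3C, CASM3C, HDF3CGF, KF3CT, MyoF, Mphg). Compounds were added 1 h before stimulation and left for 24 h (MyoF 48 h; BT 72 h for soluble read-outs or 6 d for IgG). Biomarkers were read by ELISA, cytotoxicity by SRB, PBMC viability and proliferation by Alamar Blue. Each well value was divided by the mean of 8 DMSO control wells on the same plate and log10 transformed; duplicate blinded samples were tested at 4 concentrations.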

Perfluorooctanamidine = compound: N=C(N)C(F)(F)C(F)(F)C(F)(F)C(F)(F)C(F)(F)C(F)(F)C(F)(F)F [Perfluorooctanamidine]
Experimental: as §1

[1] = compound: O=C(O)C(F)(F)C(F)(F)C(F)(F)C(F)(F)C(F)(F)C(F)(F)C(F)(F)C(F)(F)Cl [9-Chloro-perfluorononanoic acid]
Experimental: as §1

[2] = compound: O=S(=O)(O)C(F)(F)C(F)(F)C(F)(F)C(F)(F)F [Perfluorobutanesulfonic acid]
Experimental: as §1

Row | Test System | level (log10) (1-(Perfluorohexyl)octane; 6700 nM) | level (log10) (1-(Perfluorohexyl)octane; 20000 nM) | level (log10) (Perfluorooctanamidine; 6700 nM) | level (log10) (Perfluorooctanamidine; 20000 nM) | level (log10) (Perfluorooctanamidine; 60000 nM) | level (log10) ([1]; 6700 nM) | level (log10) ([1]; 20000 nM) | level (log10) ([2]; 6700 nM) | level (log10) ([2]; 20000 nM) | level (log10) ([2]; 60000 nM)
1 | BF4T:Keratin 8/18 | 0.006 ± 0.016 | 0.0055 ± 0.0078 | -0.012 ± 0.0057 | -0.0165 ± 0.016 | 0.039 | -0.004 ± 0.0057 | -0.0105 ± 0.0035 | -0.0245 ± 0.028 | -0.0145 ± 0.011 | -0.0045 ± 0.015
2 | BF4T:MMP-1 | -0.0155 ± 0.035 | 0.0075 ± 0.052 | 0.015 ± 0.02 | 0.006 ± 0.024 | 0.092 | -0.0115 ± 0.0078 | 0.0245 ± 0.0064 | 0.0035 ± 0.0064 | -0.009 ± 0.013 | -0.0045 ± 0.00071
3 | BF4T:MMP-3 | 0.005 ± 0.0057 | -0.0135 ± 0.016 | 0.0035 ± 0.032 | 0.003 ± 0.055 | 0.148 | 0.0535 ± 0.023 | 0.118 ± 0.035 | 0.014 ± 0.0014 | 0.001 | 0.042 ± 0.033
4 | BF4T:MMP-9 | -0.014 ± 0.02 | 0.005 ± 0.025 | -0.006 ± 0.0057 | -0.0115 ± 0.013 | 0.053 | -0.0395 ± 0.036 | -0.0715 ± 0.019 | -0.004 ± 0.0014 | -0.0065 ± 0.028 | -0.013 ± 0.02
5 | BF4T:PAI-I | 0.0075 ± 0.026 | 0.0005 ± 0.028 | 0.007 ± 0.013 | -0.001 ± 0.03 | 0.03 | -0.027 ± 0.0042 | -0.052 ± 0.0028 | -0.0075 ± 0.0092 | -0.005 ± 0.0042 | 0.0015 ± 0.005
6 | BF4T:SRB | -0.0045 ± 0.0035 | -0.0035 ± 0.0035 | -0.009 ± 0.0071 | -0.0085 ± 0.0035 | -0.004 | -0.013 ± 0.0071 | -0.0555 ± 0.0064 | -0.006 ± 0.0099 | -0.0085 ± 0.005 | -0.009 ± 0.0028
7 | BF4T:tPA | 0.0075 ± 0.013 | 0.026 ± 0.0057 | 0.004 ± 0.014 | -0.027 ± 0.069 | 0.028 | -0.075 ± 0.0099 | -0.098 ± 0.0099 | -0.0115 ± 0.021 | 0.0025 ± 0.0092 | 0.0115 ± 0.018
8 | BF4T:uPA | -0.0105 ± 0.0035 | -0.0125 ± 0.00071 | -0.0185 ± 0.005 | -0.0225 ± 0.011 | 0.05 | -0.0045 ± 0.012 | -0.01 ± 0.0071 | -0.026 ± 0.02 | 0.006 ± 0.0014 | -0.014 ± 0.027
9 | BT:B cell Proliferation | 0.0145 ± 0.011 | 0.012 ± 0.011 | -0.0005 ± 0.011 | -0.002 ± 0.017 | -0.086 | 0.04 ± 0.038 | 0.037 ± 0.017 | -0.0025 ± 0.016 | 0.0085 ± 0.016 | 0.038 ± 0.0014
10 | BT:PBMC Cytotoxicity | 0 ± 0.013 | 0.0225 ± 0.0021 | 0.005 | 0 ± 0.031 | 0.006 | 0.015 ± 0.028 | 0.0355 ± 0.015 | 0.03 ± 0.044 | 0.039 ± 0.027 | 0.057 ± 0.0057
11 | BT:Secreted IgG | 0.0355 ± 0.012 | 0.04 ± 0.028 | 0.0115 ± 0.039 | -0.042 ± 0.0042 | -0.034 | 0.0065 ± 0.06 | 0.0175 ± 0.011 | 0.0005 ± 0.00071 | -0.0055 ± 0.023 | -0.016 ± 0.052
12 | BT:sIL-2 | -0.024 ± 0.073 | 0.0635 ± 0.067 | 0.0225 ± 0.057 | -0.01 ± 0.031 | -0.002 | -0.0175 ± 0.066 | -0.0565 ± 0.1 | -0.0155 ± 0.079 | -0.059 ± 0.044 | -0.025 ± 0.04
13 | BT:sIL-6 | -0.0155 ± 0.094 | -0.006 ± 0.03 | 0.0205 ± 0.025 | -0.0285 ± 0.016 | -0.097 | 0.0155 ± 0.022 | 0.0135 ± 0.018 | -0.035 ± 0.061 | 0.004 ± 0.067 | 0.012 ± 0.02
14 | BT:sIL-17A | 0.06 ± 0.018 | 0.0085 ± 0.12 | 0.1795 ± 0.00071 | -0.145 ± 0.044 | -0.141 | 0.015 ± 0.054 | 0.008 ± 0.047 | -0.0215 ± 0.14 | 0.157 ± 0.016 | 0.021 ± 0.2
15 | BT:sIL-17F | 0.083 ± 0.033 | 0.089 ± 0.0071 | -0.0225 ± 0.071 | -0.209 ± 0.023 | -0.112 | -0.0055 ± 0.074 | 0.011 ± 0.024 | 0.008 ± 0.0057 | 0.0145 ± 0.04 | -0.0225 ± 0.0064
16 | BT:sTNF-alpha | 0.0415 ± 0.028 | 0.126 ± 0.16 | 0.102 ± 0.099 | 0.0345 ± 0.084 | 0.01 | 0.0075 ± 0.011 | 0.0075 ± 0.022 | 0.0295 ± 0.011 | 0.0515 ± 0.071 | 0.015 ± 0.011
17 | LPS:CCL2/MCP-1 | 0.006 ± 0.021 | 0.017 ± 0.013 | -0.0005 ± 0.021 | -0.003 ± 0.0028 | -0.023 | 0.005 ± 0.038 | 0.006 ± 0.0028 | -0.0285 ± 0.057 | -0.021 ± 0.027 | -0.035 ± 0.0014
18 | LPS:CD40 | -0.0355 ± 0.079 | -0.0205 ± 0.049 | -0.0145 ± 0.04 | -0.0525 ± 0.021 | -0.148 | 0.02 ± 0.064 | 0.055 ± 0.0071 | -0.0395 ± 0.00071 | -0.0375 ± 0.029 | -0.0555 ± 0.052
19 | LPS:CD62E/E-Selectin | -0.005 ± 0.031 | 0.0115 ± 0.029 | 0.0135 ± 0.00071 | -0.009 ± 0.013 | 0.019 | -0.0095 ± 0.033 | 0.034 ± 0.0057 | 0.007 ± 0.0071 | 0.0255 ± 0.0092 | 0.028 ± 0.023
20 | LPS:CD69 | -0.012 ± 0.061 | 0.007 ± 0.038 | -0.025 ± 0.045 | -0.0395 ± 0.04 | -0.132 | -0.0335 ± 0.026 | -0.063 ± 0.028 | -0.0405 ± 0.061 | 0.0155 ± 0.05 | 0.0825 ± 0.023
21 | LPS:CD106/VCAM-1 | 0.001 ± 0.0057 | 0.017 ± 0.0085 | -0.017 ± 0.014 | -0.0365 ± 0.026 | -0.091 | -0.008 ± 0.045 | 0.003 ± 0.037 | -0.0055 ± 0.012 | 0.0175 ± 0.011 | 0.03 ± 0.0014
22 | LPS:CD141/Thrombomodulin | -0.0215 ± 0.0021 | 0.0025 ± 0.023 | -0.0235 ± 0.0078 | -0.0325 ± 0.022 | -0.01 | 0.0485 ± 0.033 | 0.064 ± 0.03 | -0.048 ± 0.0085 | -0.0045 ± 0.015 | -0.024 ± 0.031
23 | LPS:CD142/Tissue Factor | -0.006 ± 0.088 | 0.003 ± 0.083 | -0.008 ± 0.037 | 0.0055 ± 0.033 | -0.071 | 0.0165 ± 0.059 | 0.0375 ± 0.016 | 0.016 ± 0.038 | -0.0155 ± 0.039 | -0.0175 ± 0.016
24 | LPS:CXCL8/IL-8 | 0.0335 ± 0.00071 | 0.0405 ± 0.026 | -0.019 ± 0.027 | -0.005 ± 0.016 | -0.028 | 0.019 ± 0.062 | 0.061 ± 0.048 | 0.0225 ± 0.019 | 0.0125 ± 0.021 | 0.0765 ± 0.00071
25 | LPS:IL-1alpha | -0.0215 ± 0.016 | 0.001 ± 0.0057 | 0.011 ± 0.024 | -0.0095 ± 0.049 | -0.003 | 0.038 ± 0.017 | 0.025 ± 0.021 | -0.0445 ± 0.067 | -0.0235 ± 0.013 | -0.0265 ± 0.05
26 | LPS:M-CSF | -0.0065 ± 0.021 | 0.0235 ± 0.037 | -0.0045 ± 0.0078 | -0.011 ± 0.03 | -0.068 | -0.0125 ± 0.0078 | 0.0485 ± 0.047 | 0.021 ± 0.016 | -0.0035 ± 0.00071 | 0.01 ± 0.014
27 | LPS:SRB | 0.0035 ± 0.0078 | 0.0035 ± 0.011 | -0.005 ± 0.0085 | 0.006 ± 0.011 | -0.035 | 0.0015 ± 0.012 | -0.0035 ± 0.013 | 0.0065 ± 0.011 | 0.004 ± 0.0057 | 0.002 ± 0.0057
28 | LPS:sPGE2 | 0.011 ± 0.018 | 0.02 ± 0.0042 | -0.019 ± 0.031 | -0.078 ± 0.031 | -0.06 | 0.0175 ± 0.0092 | -0.0895 ± 0.0078 | 0.0595 ± 0.011 | 0.041 ± 0.051 | 0.0355 ± 0.043
29 | LPS:sTNF-alpha | 0.0005 ± 0.0064 | -0.0015 ± 0.013 | -0.0145 ± 0.071 | -0.095 ± 0.17 | -0.08 | -0.0115 ± 0.0078 | -0.004 ± 0.014 | 0.002 ± 0.028 | -0.0175 ± 0.023 | -0.0075 ± 0.026
